Measurements taken from paper PMC6178217 (JACC. Cardiovascular imaging, 2018).
Read-outs that look alike come from different tables or passages of the source.

Assays:
CB1-R [1] = target: CB1-R (Mus musculus, UniProt P47746); assay: Rimonabant blocking study of [^11C]-OMAR uptake in obese mice; assay type: in vivo
myocardial CB1-R [2] = target: myocardial CB1-R (Mus musculus, UniProt P47746); assay: [^11C]-OMAR dynamic micro-PET/CT, myocardial OMAR retention in mice; assay type: in vivo; conditions: for myocardial OMAR retention: median [range]
myocardial CB1-R [3] = target: myocardial CB1-R (Homo sapiens, UniProt P21554); assay: [^11C]-OMAR PET/CT, myocardial retention index of OMAR in humans; assay type: in vivo; conditions: median (range)
[4] = obese mice, intravenous, median (range)
[5] = median (range)
CB1-R [6] = conditions: cited from earlier work
[7] = as reported in brain studies; cited from earlier work

CB1-R (Mus musculus, UniProt P47746), sequence (P47746 whole entry): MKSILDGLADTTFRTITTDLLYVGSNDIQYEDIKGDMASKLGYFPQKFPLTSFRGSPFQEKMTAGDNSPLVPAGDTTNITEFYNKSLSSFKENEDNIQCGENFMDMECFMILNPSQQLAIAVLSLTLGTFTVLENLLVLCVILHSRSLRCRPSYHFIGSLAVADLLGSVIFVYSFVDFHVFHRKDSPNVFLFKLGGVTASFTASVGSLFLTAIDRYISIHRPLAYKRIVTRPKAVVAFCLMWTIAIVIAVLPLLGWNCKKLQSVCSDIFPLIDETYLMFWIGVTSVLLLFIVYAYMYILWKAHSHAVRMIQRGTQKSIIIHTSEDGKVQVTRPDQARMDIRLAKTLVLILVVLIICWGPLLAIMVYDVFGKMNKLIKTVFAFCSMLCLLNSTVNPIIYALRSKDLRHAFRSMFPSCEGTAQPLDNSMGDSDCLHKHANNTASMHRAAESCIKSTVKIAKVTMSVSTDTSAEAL
myocardial CB1-R (Mus musculus, UniProt P47746), sequence (P47746 whole entry): as above
myocardial CB1-R (Homo sapiens, UniProt P21554), sequence (P21554 whole entry): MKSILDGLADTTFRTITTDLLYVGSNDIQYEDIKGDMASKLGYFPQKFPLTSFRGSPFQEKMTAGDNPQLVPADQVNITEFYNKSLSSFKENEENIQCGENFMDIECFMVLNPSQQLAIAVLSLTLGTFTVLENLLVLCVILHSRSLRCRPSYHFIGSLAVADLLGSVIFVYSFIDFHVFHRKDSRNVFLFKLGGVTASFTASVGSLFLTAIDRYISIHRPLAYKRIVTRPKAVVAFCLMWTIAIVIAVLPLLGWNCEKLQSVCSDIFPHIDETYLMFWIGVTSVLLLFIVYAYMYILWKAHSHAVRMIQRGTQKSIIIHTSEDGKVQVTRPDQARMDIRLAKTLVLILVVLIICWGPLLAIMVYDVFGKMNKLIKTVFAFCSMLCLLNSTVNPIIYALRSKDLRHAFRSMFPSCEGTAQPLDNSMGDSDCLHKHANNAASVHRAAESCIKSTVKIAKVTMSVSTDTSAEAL

For [11CH3]Oc1ccc(-c2c(C#N)c(C(=O)NN3CCCCC3)nn2-c2ccc(Cl)cc2Cl)cc1 [[^11C]-OMAR], the “[^11C]-OMAR uptake that could not be blocked” value (CB1-R [1]; 5 mg/kg dose of rimonabant, heart) was “about 42%”, the “baseline-to-block ratio of myocardial [^11C]-OMAR uptake” value (CB1-R [1]; myocardial blocking study) was “about 2.4” and the binding potential (CB1-R [1]; myocardial blocking study) was greater than 1. For the same compound, the “fold higher [^11C]-OMAR retention in obese versus lean mice” value (myocardial CB1-R [2]; heart, ob/ob vs lean control mice, micro-PET/CT) was 8 fold, the “myocardial OMAR retention” value (myocardial CB1-R [2]; normal-weight mice) was 0.13 %/min and the “binding potential of [^11C]-OMAR to myocardial CB1-R” value (myocardial CB1-R [2]; obese mice) was 6.4. The “myocardial OMAR retention” value (myocardial CB1-R [2]; obese mice) was 8.29 %/min, the “OMAR retention (absolute left ventricular)” value (myocardial CB1-R [3]; AOB (advanced obesity)) was 5.68 (1.88–6.89) %/min and the “OMAR retention (absolute left ventricular)” value (myocardial CB1-R [3]; CON (normal-weight control subjects)) was 0.47 (0.13–1.31) %/min. For the same compound, the “[^11C]-OMAR uptake, Blood” value ([4]; 5 min) was 1.19 (1.10–1.33) %ID/g Tissue, the “[^11C]-OMAR uptake, Cerebellum” value ([4]; 5 min) was 2.43 (1.72–2.74) %ID/g Tissue and the “[^11C]-OMAR uptake, Heart” value ([4]; 5 min) was 4.63 (4.00–5.23) %ID/g Tissue. For the same compound, the “[^11C]-OMAR uptake, Blood” value ([4]; 10 min) was 0.99 (0.91–1.19) %ID/g Tissue, the “[^11C]-OMAR uptake, Cerebellum” value ([4]; 10 min) was 2.32 (2.11–2.50) %ID/g Tissue and the “[^11C]-OMAR uptake, Thalamus” value ([4]; 10 min) was 1.62 (1.59–1.72) %ID/g Tissue. For the same compound, the “[^11C]-OMAR uptake, Blood” value ([4]; 15 min) was 0.99 (0.91–1.19) %ID/g Tissue, the “[^11C]-OMAR uptake, Cerebellum” value ([4]; 15 min) was 2.53 (2.43–2.55) %ID/g Tissue and the “[^11C]-OMAR uptake, Thalamus” value ([4]; 15 min) was 1.69 (1.59–1.72) %ID/g Tissue. The “[^11C]-OMAR uptake, Blood” value ([4]; 30 min) was 0.55 (0.39–0.65) %ID/g Tissue, the “[^11C]-OMAR uptake, Cerebellum” value ([4]; 30 min) was 2.11 (1.25–2.38) %ID/g Tissue and the “[^11C]-OMAR uptake, Heart” value ([4]; 30 min) was 2.14 (2.09–2.17) %ID/g Tissue. The “[^11C]-OMAR uptake, Thalamus” value ([4]; 30 min) was 1.21 (1.18–1.21) %ID/g Tissue, the “[^11C]-OMAR uptake, Blood” value ([4]; 60 min) was 0.46 (0.46–0.47) %ID/g Tissue and the “[^11C]-OMAR uptake, Cerebellum” value ([4]; 60 min) was 1.37 (1.25–1.51) %ID/g Tissue. For the same compound, the “[^11C]-OMAR uptake, Heart” value ([4]; 60 min) was 1.55 (1.48–1.61) %ID/g Tissue, the “[^11C]-OMAR uptake, Thalamus” value ([4]; 60 min) was 0.73 (0.58–0.77) %ID/g Tissue and the “[^11C]-OMAR uptake, Blood” value ([4]; 90 min) was 0.55 (0.51–0.68) %ID/g Tissue. For the same compound, the “[^11C]-OMAR uptake, Cerebellum” value ([4]; 90 min) was 1.11 (1.05–2.00) %ID/g Tissue, the “[^11C]-OMAR uptake, Heart” value ([4]; 90 min) was 1.40 (1.40–1.79) %ID/g Tissue and the “[^11C]-OMAR uptake, Thalamus” value ([4]; 90 min) was 0.55 (0.38–0.98) %ID/g Tissue. The “DBP after [^11C]-OMAR injection” value ([5]; AOB) was 71 (56–78) mm Hg, the “HR after [^11C]-OMAR injection” value ([5]; AOB) was 72 (65–84) beats/min and the “MAP after [^11C]-OMAR injection” value ([5]; AOB) was 93 (76–96) mm Hg. The “RPP after [^11C]-OMAR injection” value ([5]; AOB) was 9,588 (7,325–10,960) mm Hg/min, the “SBP after [^11C]-OMAR injection” value ([5]; AOB) was 133 (116–140) mm Hg and the “DBP after [^11C]-OMAR injection” value ([5]; CON) was 62 (60–68) mm Hg. The “HR after [^11C]-OMAR injection” value ([5]; CON) was 70 (61–77) beats/min, the “MAP after [^11C]-OMAR injection” value ([5]; CON) was 81 (75–97) mm Hg and the “SBP after [^11C]-OMAR injection” value ([5]; CON) was 120 (118–124) mm Hg. For the same compound, the “blocking of [^11C]-OMAR uptake reported for brain studies” value (CB1-R [6]; brain) was “about 75%”, the “binding potential in the brain” value (CB1-R [6]; previous blocking studies in the brain) was “about 2” and the “radioactivity related to unchanged [^11C]-OMAR” value [7] was “at least 94%”.
